Paper PMC7540527, “Synthesis of Antiviral Perfluoroalkyl Derivatives of Teicoplanin and Vancomycin” (Chemmedchem, 2020)
Values after ≈ are worked out from the molar mass of the structure shown. Structures can show the parent of a compound that is named as a salt. Where two headings read alike, the source gives them in different places.

Experiments:
[1] = tested on: Bacillus subtilis ATCC 6633; assay: Antibacterial MIC; type: cell-based; conditions: for MIC: Bacillus subtilis, ATCC6633, read-out: MIC Bacillus subtilis ATCC 6633
[2] = tested on: Staphylococcus aureus MSSA ATCC 29213; assay: Antibacterial MIC; type: cell-based; conditions: for MIC: Staphylococcus aureus, read-out: MIC Staphylococcus aureus MSSA ATCC 29213
[3] = tested on: S. aureus MRSA ATCC 33591; assay: Antibacterial MIC; type: cell-based, Staphylococcus aureus; conditions: for MIC: Staphylococcus aureus, read-out: MIC S. aureus MRSA ATCC 33591
[4] = tested on: Staphylococcus epidermidis ATCC 35984 biofilm; assay: Antibacterial MIC; type: cell-based
[5] = tested on: Enterococcus faecalis ATCC 29212; assay: Antibacterial MIC; type: cell-based; conditions: for MIC: Enterococcus faecalis, ATCC29212, read-out: MIC Enterococcus faecalis ATCC 29212
E. faecalis 15376 VanA = assay: Antibacterial MIC; type: cell-based, Enterococcus faecalis; conditions: for MIC: Enterococcus faecalis, 15376VANA, read-out: MIC E. faecalis 15376 VanA
[6] = tested on: E. faecalis ATCC 51299 VanB; assay: Antibacterial MIC; type: cell-based, Enterococcus faecalis; conditions: for MIC: Enterococcus faecalis, ATCC51299, read-out: MIC E. faecalis ATCC 51299 VanB
[7] = tested on: panel of Gram-positive bacteria; type: cell-based
HeLa cells = conditions: human
[8] = tested on: influenza A and B viruses; type: cell-based, influenza virus
[9] = tested on: HEL human embryonic lung fibroblast cells
Vero cells = conditions: African green monkey
[10] = tested on: influenza A/H1N1 A/Ned/378/05; assay: microbe, parasite or virus in culture; type: cell-based, influenza A virus
[11] = tested on: influenza A/H3N2 A/Victoria/361/11; assay: microbe, parasite or virus in culture; type: cell-based, influenza A virus
[12] = tested on: influenza B virus B/Ned/537/05; assay: CPE reduction assay for influenza virus in MDCK cells, influenza B; type: cell-based
Description: The CPE reduction assay for influenza virus was described in full detail in previous publications.41 The virus strains were: A/PR/8/34 (A/H1 N1); A/Virginia/ATCC3/2009 (A/H1 N1pdm); A/HK/7/87 (A/H3 N2); B/Ned/537/05; and B/HK/5/72. On day 0, Madin‐Darby canine kidney (MDCK) cells in 96‐well plates were infected with influenza virus at a multiplicity of infection (MOI) of 0.0004 plaque forming units (PFU) per cell. After three days incubation at 35 °C, virus‐induced CPE and compound cytotoxicity were scored by microscopy, after which the data were confirmed by formazan‐based MTS cell viability assay (CellTiter 96® AQueous One Solution Cell Proliferation Assay from Promega). The antiviral effect was expressed as the compound concentration producing 50 % inhibition of the virus‐induced CPE (EC50). Compound cytotoxicity was expressed as the compound concentration causing minimal changes in cell morphology (MCC), and 50 % cytotoxic concentration (CC50) based on MTS assay.42

in vitro = conditions: dog

| Compound | MIC [1] [µg/mL] | MIC [2] [µg/mL] | MIC [3] [µg/mL] | MIC Staphylococcus epidermidis ATCC 35984 biofilm [4] [µg/mL] | MIC [5] [µg/mL] | MIC (E. faecalis 15376 VanA) [µg/mL] | MIC [6] [µg/mL] | Cytotoxicity in MDCK cells (in words) (MDCK cells) | CC50 (MDCK cells; dog) [µM] | Cytotoxicity MCC (minimum cytotoxic concentration) (MDCK cells; dog) [µM] | CC50 (HeLa cells) [µM] | Cytotoxicity MCC (HeLa cells) | Activity against influenza strains (in words) [8] | CC50 [9] [µM] | CC50 (Vero cells) [µM] | also measured |
| --- | --- | --- | --- | --- | --- | --- | --- | --- | --- | --- | --- | --- | --- | --- | --- | --- |
| CC(C)C[C@H](C(=O)N[C@H]1C(=O)N[C@@H](CC(N)=O)C(=O)N[C@H]2C(=O)N[C@H]3C(=O)N[C@H](C(=O)N[C@H](C(=O)O)c4cc(O)cc(O)c4-c4cc3ccc4O)[C@H](O)c3ccc(c(Cl)c3)Oc3cc2cc(c3O)Oc2ccc(cc2Cl)[C@H]1O)n1cc(COCCOCCOCCOCCOCCCC(F)(F)C(F)(F)C(F)(F)C(F)(F)F)nn1 [Compound 12] | 32 (≈ 19.4 µM) | 4 (≈ 2.43 µM) | 8 (≈ 4.85 µM) | 8 (≈ 4.85 µM) | 8 (≈ 4.85 µM) | 16 (≈ 9.71 µM) | 16 (≈ 9.71 µM) | highly cytotoxic | 4 | 42 | > 100 | > 100 | – | – | – | Antibacterial activity (in words) [7]: moderate activity |
| CC(C)C[C@H](C(=O)N[C@H]1C(=O)N[C@@H](CC(N)=O)C(=O)N[C@H]2C(=O)N[C@H]3C(=O)N[C@H](C(=O)N[C@H](C(=O)O)c4cc(O)cc(O)c4-c4cc3ccc4O)[C@H](O)c3ccc(c(Cl)c3)Oc3cc2cc(c3O)Oc2ccc(cc2Cl)[C@H]1O)n1cc(COCCOCCOCCOCCOCCCC(F)(F)C(F)(F)C(F)(F)C(F)(F)C(F)(F)C(F)(F)C(F)(F)C(F)(F)F)nn1 [Compound 13] | 16 (≈ 8.66 µM) | 8 (≈ 4.33 µM) | 8 (≈ 4.33 µM) | 16 (≈ 8.66 µM) | 4 (≈ 2.16 µM) | 256 (≈ 139 µM) | 32 (≈ 17.3 µM) | highly cytotoxic | 0.8 | 0.8 | > 100 | ≥ 100 | – | – | – | Antibacterial activity (in words) [7]: moderate activity |
| CC(=O)N[C@H]1[C@H](O[C@@H]2c3ccc(c(Cl)c3)Oc3cc4cc(c3O)Oc3ccc(cc3Cl)C[C@H]3NC(=O)[C@H](N=[N+]=[N-])c5ccc(O)c(c5)Oc5cc(O)cc(c5)[C@H](NC3=O)C(=O)N[C@H]4C(=O)N[C@H]3C(=O)N[C@@H]2C(=O)N[C@H](C(=O)O)c2cc(O)cc(O)c2-c2cc3ccc2O)O[C@H](CO)[C@@H](O)[C@@H]1O [Compound 14] | – | – | – | – | – | – | – | – | > 100 | >100 | – | – | – | – | – | – |
| CC(=O)NC1C(OC2c3ccc(c(Cl)c3)Oc3cc4cc(c3O)Oc3ccc(cc3Cl)CC3NC(=O)C(n5cc(COCCOCCCC(F)(F)C(F)(F)C(F)(F)C(F)(F)F)nn5)c5ccc(O)c(c5)Oc5cc(O)cc(c5)C(NC3=O)C(=O)NC4C(=O)NC3C(=O)NC2C(=O)NC(C(=O)O)c2cc(O)cc(O)c2-c2cc3ccc2O)OC(CO)C(O)C1O (centres unmarked) [Compound 15] | 0.5 (≈ 0.28 µM) | 0.5 (≈ 0.28 µM) | 0.5 (≈ 0.28 µM) | 0.5 (≈ 0.28 µM) | 0.5 (≈ 0.28 µM) | 1 (≈ 0.559 µM) | 4 (≈ 2.24 µM) | – | > 100 | 100 | 43 | – | robust activity | > 100 | > 100 | Cytotoxicity MCC (Vero cells): > 100 |
| CC(=O)NC1C(OC2c3ccc(c(Cl)c3)Oc3cc4cc(c3O)Oc3ccc(cc3Cl)CC3NC(=O)C(n5cc(COCCOCCOCCOCCOCCCC(F)(F)C(F)(F)C(F)(F)C(F)(F)F)nn5)c5ccc(O)c(c5)Oc5cc(O)cc(c5)C(NC3=O)C(=O)NC4C(=O)NC3C(=O)NC2C(=O)NC(C(=O)O)c2cc(O)cc(O)c2-c2cc3ccc2O)OC(CO)C(O)C1O (centres unmarked) [Compound 16] | 2 (≈ 1.04 µM) | 0.5 (≈ 0.26 µM) | 0.5 (≈ 0.26 µM) | 0.5 (≈ 0.26 µM) | 1 (≈ 0.521 µM) | 2 (≈ 1.04 µM) | 1 (≈ 0.521 µM) | – | 97 | 100 | > 100 | > 100 | robust activity | > 100 | > 100 | – |
| CC(=O)NC1C(OC2c3ccc(c(Cl)c3)Oc3cc4cc(c3O)Oc3ccc(cc3Cl)CC3NC(=O)C(n5cc(COCCOCCCC(F)(F)C(F)(F)C(F)(F)C(F)(F)C(F)(F)C(F)(F)C(F)(F)C(F)(F)F)nn5)c5ccc(O)c(c5)Oc5cc(O)cc(c5)C(NC3=O)C(=O)NC4C(=O)NC3C(=O)NC2C(=O)NC(C(=O)O)c2cc(O)cc(O)c2-c2cc3ccc2O)OC(CO)C(O)C1O (centres unmarked) [Compound 17] | 128 (≈ 64.4 µM) | 16 (≈ 8.05 µM) | 16 (≈ 8.05 µM) | 16 (≈ 8.05 µM) | 256 (≈ 129 µM) | 256 (≈ 129 µM) | 256 (≈ 129 µM) | – | 44 | 100 | > 100 | > 100 | robust activity | > 100 | > 100 | – |
| CC(=O)NC1C(OC2c3ccc(c(Cl)c3)Oc3cc4cc(c3O)Oc3ccc(cc3Cl)CC3NC(=O)C(n5cc(COCCOCCOCCOCCOCCCC(F)(F)C(F)(F)C(F)(F)C(F)(F)C(F)(F)C(F)(F)C(F)(F)C(F)(F)F)nn5)c5ccc(O)c(c5)Oc5cc(O)cc(c5)C(NC3=O)C(=O)NC4C(=O)NC3C(=O)NC2C(=O)NC(C(=O)O)c2cc(O)cc(O)c2-c2cc3ccc2O)OC(CO)C(O)C1O (centres unmarked) [Compound 18] | 4 (≈ 1.89 µM) | 8 (≈ 3.77 µM) | 4 (≈ 1.89 µM) | 4 (≈ 1.89 µM) | 16 (≈ 7.55 µM) | 32 (≈ 15.1 µM) | 32 (≈ 15.1 µM) | high cytotoxicity | 4.2 | – | 41 | – | without antiviral activity | > 100 | > 100 | – |
| CN[C@H](CC(C)C)C(=O)N[C@H]1C(=O)N[C@@H](CC(N)=O)C(=O)N[C@H]2C(=O)N[C@H]3C(=O)N[C@H](C(=O)N[C@H](C(=O)O)c4cc(O)cc(O)c4-c4cc3ccc4O)[C@H](O)c3ccc(c(Cl)c3)Oc3cc2cc(c3O[C@@H]2O[C@H](CO)[C@@H](O)[C@H](O)[C@H]2O[C@H]2C[C@](C)(N)[C@H](O)[C@H](C)O2)Oc2ccc(cc2Cl)[C@H]1O [VAN, vancomycin] | 0.5 (≈ 0.345 µM) | 0.5 (≈ 0.345 µM) | 0.5 (≈ 0.345 µM) | 2 (≈ 1.38 µM) | 1 (≈ 0.69 µM) | 256 (≈ 177 µM) | 128 (≈ 88.3 µM) | – | – | – | – | – | – | – | – | – |
| CN[C@H](CC(C)C)C(=O)N[C@H]1C(=O)N[C@@H](CC(N)=O)C(=O)N[C@H]2C(=O)N[C@H]3C(=O)N[C@H](C(=O)N[C@H](C(=O)O)c4cc(O)cc(O)c4-c4cc3ccc4O)[C@H](O)c3ccc(c(Cl)c3)Oc3cc2cc(c3O[C@@H]2O[C@H](CO)[C@@H](O)[C@H](O)[C@H]2O[C@H]2C[C@](C)(N)[C@H](O)[C@H](C)O2)Oc2ccc(cc2Cl)[C@H]1O [vancomycin⋅HCl] | – | – | – | – | – | – | – | – | – | >100 | – | – | – | – | – | EC50 ([10]; Influenza A virus, H1N1, MDCK, read-out: Antiviral EC50 A/H1N1 CPE): > 100 µM; EC50 ([10]; Influenza A virus, H1N1, MDCK, read-out: Antiviral EC50 A/H1N1 MTS): > 100 µM; EC50 ([11]; Influenza A virus, H3N2, MDCK, read-out: Antiviral EC50 A/H3N2 CPE): > 100 µM; EC50 ([11]; Influenza A virus, H3N2, MDCK, read-out: Antiviral EC50 A/H3N2 MTS): > 100 µM; EC50 ([12]; Influenza B virus, MDCK, read-out: Antiviral EC50 Influenza B CPE): > 100 µM; EC50 ([12]; Influenza B virus, MDCK, read-out: Antiviral EC50 Influenza B MTS): > 100 µM; CC50 (in vitro): > 100 µM |
| teicoplanin [reference compound] | – | – | – | 2 | – | – | – | – | – | – | – | – | – | – | – | EC50 ([10]; read-out: Antiviral EC50 A/H1N1 CPE): > 100 µM; EC50 ([10]; read-out: Antiviral EC50 A/H1N1 MTS): > 100 µM; EC50 ([11]; read-out: Antiviral EC50 A/H3N2 CPE): > 100 µM; EC50 ([11]; read-out: Antiviral EC50 A/H3N2 MTS): > 100 µM; EC50 ([12]; MDCK cells, B/Ned/537/05, MTS assay, read-out: Antiviral EC50 Influenza B MTS): > 100 µM; EC50 ([12]; MDCK cells, B/Ned/537/05, visual CPE scoring, read-out: Antiviral EC50 Influenza B CPE): > 100 µM; MIC Bacillus subtilis ATCC 6633 [1]: 0.5 µg/mL; MIC Staphylococcus aureus MSSA ATCC 29213 ([2]; methicillin-sensitive): 0.5 µg/mL; MIC S. aureus MRSA ATCC 33591 ([3]; methicillin-resistant): 0.5 µg/mL; MIC Enterococcus faecalis ATCC 29212 [5]: 2 µg/mL; MIC E. faecalis 15376 VanA (E. faecalis 15376 VanA; vanA gene positive): 256 µg/mL; MIC E. faecalis ATCC 51299 VanB ([6]; vanB gene positive): 4 µg/mL; CC50 (MDCK cells): > 100 µM; Cytotoxicity MCC (minimum cytotoxic concentration) (MDCK cells): >100 µM |
